The values that follow come from patent US20210252175A1, “NOVEL COMPOUNDS FOR DIAGNOSIS” (AC IMMUNE SA, priority 2018, published 2021).

Entries after “also recorded” stand apart in the source; their conditions may differ. Read-outs that look alike come from different tables or passages of the source. Bounds are passed on as bounds.

Assay [1] deals with T1, Aβ pathological aggregates present in the human AD insoluble fractions (Homo sapiens, UniProt P05067).
T1 construct: "4.7 g of frontal lobe tissue from post-mortem brain of one Alzheimer's disease (AD) patient"
T1 sequence (P05067 whole entry): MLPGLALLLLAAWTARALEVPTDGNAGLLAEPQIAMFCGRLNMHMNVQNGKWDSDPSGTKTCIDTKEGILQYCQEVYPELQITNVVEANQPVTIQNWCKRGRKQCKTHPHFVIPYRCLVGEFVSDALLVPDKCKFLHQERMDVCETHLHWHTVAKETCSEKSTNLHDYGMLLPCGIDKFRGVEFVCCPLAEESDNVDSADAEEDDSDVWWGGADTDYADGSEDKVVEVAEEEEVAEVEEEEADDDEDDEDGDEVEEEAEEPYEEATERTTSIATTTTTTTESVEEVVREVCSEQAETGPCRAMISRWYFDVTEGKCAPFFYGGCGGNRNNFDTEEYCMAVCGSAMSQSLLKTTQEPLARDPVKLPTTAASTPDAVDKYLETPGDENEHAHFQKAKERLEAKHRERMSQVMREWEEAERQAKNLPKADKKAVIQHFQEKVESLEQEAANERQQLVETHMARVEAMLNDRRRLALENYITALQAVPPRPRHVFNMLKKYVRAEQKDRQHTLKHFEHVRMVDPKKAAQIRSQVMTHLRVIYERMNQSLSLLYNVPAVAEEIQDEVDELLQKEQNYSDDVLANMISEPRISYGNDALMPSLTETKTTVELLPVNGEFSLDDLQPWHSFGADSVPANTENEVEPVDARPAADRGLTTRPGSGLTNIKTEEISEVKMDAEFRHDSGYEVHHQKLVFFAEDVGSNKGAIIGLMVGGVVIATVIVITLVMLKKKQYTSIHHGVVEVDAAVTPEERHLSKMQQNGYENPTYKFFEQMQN
The assay can be described thus: Radio-binding competition assay on human AD insoluble fraction. To be noted: for Ki: radioligand [3H] Example 47 of WO2017/153601 at 7 nM. Here is the method: 4.7 g of frontal lobe tissue from post-mortem brain of one Alzheimer's disease (AD) patient were purchased from an external provider (Tissue Solutions Ltd., UK). The patient was a […] and died […]. The brain sample was collected 7.7 hours post-mortem and characterized for Braak disease stage (Braak, H.; Braak, E. Acta Neuropathol., 1991, 82, 239-259) as stage VI. For the preparation of the insoluble fractions, around 3 g of the AD human brain was thawed on ice and homogenized with 8.9 mL of homogenization buffer (0.75 M NaCl, 5 mM EDTA, 50 mM Tris-HCl, pH 7.5) supplemented with protease inhibitors (Complete; Roche 11697498001) in a glass Dounce homogenizer. The homogenization was performed at 4° C. The homogenate was transferred into polycarbonate centrifuge tubes (16×76 mm; Beckman 355603) and centrifuged at 100,000 g (38,000 RPM) in an ultracentrifuge (Beckman, XL100K) for 60 min at 4° C. using the pre-cooled 70.1 rotor (Beckman, 342184). Supernatants were discarded and pellets were re-suspended in 8.9 mL of homogenization buffer supplemented with 1% Triton X-100 (Sigma 93426) and processed with glass Dounce homogenizer at 4° C. The solution was then transferred into polycarbonate centrifuge bottles (16×76 mm; Beckman 355603) and centrifuged at 100,000 g (38,000 RPM) in an ultracentrifuge (Beckman, XL100K) for 60 min at 4° C. using the 70.1 Ti rotor. The process was repeated one more time (supernatants were discarded and pellets were re-suspended in 8.9 mL of homogenization buffer supplemented with 1% Triton X-100 and 1M sucrose processed with glass Dounce homogenizer at 4° C. The solution was then centrifuged at 100,000 g (38,000 RPM) for 60 min at 4° C. using the 70.1 Ti rotor). Supernatant was discarded and pellet was resuspended in 4 mL of PBS to obtain the insoluble fraction. The material was aliquoted and stored at −80° C. until use.
AD insoluble fractions diluted 1/100 were incubated in the presence of [^3H] Example 47 disclosed in WO2017/153601 used as Aβ reference binder, at a concentration of 7 nM and the example compounds of this invention were prepared at increasing concentrations in the range 0.4 nM to 2 μM for 120 minutes at 25° C. 90 μL of samples in duplicates were then filtered under vacuum on a GF/C filter plate (PerkinElmer 6005174) to trap the Aβ aggregates within the AD insoluble fractions with the bound radio-ligand, and washed five times with Tris 50 mM buffer pH 7-5. The GF/C filters were then vacuum-dried, 50 μL scintillation liquid (Ultimate Gold MB, PerkinElmer) was added in each well, and the filters were analyzed on a Microbeta2 device. Non-specific signal was determined with an excess of un-labeled ligand and specific binding was calculated by subtracting the non-specific signal from the total signal. Competition was calculated as percent, where 0% was defined as the specific binding in the presence of vehicle (0.1% DMSO in 50 mM Tris in 0.9% NaCl, 0.1% BSA) and 100% as the values obtained in the presence of excess cold Example 47 disclosed in WO2017/153601. The Ki values were calculated by nonlinear regression, one site specific binding using Prism V7 (GraphPad). Ki values to AD insoluble fraction were determined in independent experiments. Results of radio-binding competition assay on AD insoluble fraction are shown in Table 9 as measurements C and D. The Kd for the radioligand [^3H] Example 47 disclosed in WO2017/153601 on the AD insoluble fraction in measurements C and D was 8 nM.
Example compounds are ranked based on the measured Ki values to Aβ pathological aggregates present in the AD insoluble fractions.

Assay [2] addresses T2, Recombinant human full-length wild-type aSyn fibrils (Homo sapiens, UniProt P37840).
T2 construct: Recombinant human full-length wild-type aSyn bacterially expressed; purchased rPeptide, US
The assay can be described thus: Radio-binding competition assay on recombinant aSyn fibrils. To be noted: for improvement of Ki value on aSyn fibrils compared to compounds 70 and 71 of WO2017/153601: head-to-head within the same measurement; for binding to aSyn fibrils in comparison to Examples 70 and 71 of WO2017/153601: comparison of Ki values of Table 9; for Kd: read-out: Kd of the radioligand on aSyn fibrils. Here is the method: Recombinant human full-length wild-type aSyn bacterially expressed was obtained from a commercial provider (rPeptide, US). Protein preparation was transferred into polycarbonate centrifuge tubes (8×51 mm; Beckman 355657) and centrifuged at 100,000 g (38,000 rounds per minute, RPM) in an ultracentrifuge (Beckman, XL100K) for 60 min at 4° C. using the pre-cooled 50.4 Ti rotor (Beckman) to pellet any aggregated material. Supernatant was transferred into a sterile, low retention tube at a final concentration of 5 mg/mL and final volume of 0.5 mL in PBS. The protein was placed in a Thermomixer (Eppendorf) and incubated for 7 days at 37° C. with orbital shaking at 1000 rpm to generate aSyn fibrils.
Material containing aSyn fibrils was transferred into polycarbonate centrifuge tubes (8×51 mm; Beckman 355657) and centrifuged at 100,000 g (38,000 RPM) in an ultracentrifuge (Beckman, XL100K) for 60 min at 4° C. using the pre-cooled 50.4 Ti rotor. The supernatant containing still monomeric aSyn was transferred into new tubes and its concentration was determined. The pellet was resuspended with equal volume of PBS and subjected to further rounds of ultracentrifugation until the concentration obtained for the supernatant was below 0.1 mg/mL. The pellet obtained at the last round of ultracentrifugation containing aSyn fibrils was aliquoted and stored at −80° C. until use. Aggregated aSyn was used at a concentration of 1 μM in radiobinding assays.
Determination of the Binding Affinity (Ki) by Radio-Binding Competition Assay Recombinant aSyn fibrils at concentration of 1 μM were incubated with [^3H] Example 69 disclosed in WO2017/153601, used as aSyn reference binder, at concentrations between 25 nM and 35 nM. The example compounds of this invention were incubated at increasing concentrations in the range 0.4 nM to 2 μM for 120 minutes at 25° C. 90 μL of samples in duplicates were then filtered under vacuum on a GF/C filter plate (PerkinElmer 6005174) to trap the aSyn fibrils with the bound radio-ligand, and washed five times with Tris 50 mM buffer pH 7-5. The GF/C filters were then vacuum-dried, 50 μL scintillation liquid (Ultimate Gold MB, PerkinElmer) was added in each well, and the filters were analyzed on a Microbeta2 device. Non-specific signal was determined with an excess of un-labeled ligand and specific binding was calculated by subtracting the non-specific signal from the total signal. Competition was calculated as percent, where 0% was defined as the specific binding in the presence of vehicle (0.1% DMSO in 50 mM Tris in 0.9% NaCl, 0.1% BSA) and 100% as the values obtained in the presence of excess cold Example 69 disclosed in WO2017/153601. All measurements were performed with at least two technical replicates. The K; values were calculated by nonlinear regression, one site specific binding using Prism V7 (GraphPad). Ki values to recombinant aSyn fibrils were determined in independent experiments and two different batches of aSyn fibrils, derived from the same source but different lots of monomeric aSyn. Results of radio-binding competition assay for the example compounds tested in parallel within the same experiment are shown in Table 9 as measurements A and B. Measurement A was performed on one batch of aSyn fibrils; the Kd for the radioligand [^3H] Example 69 disclosed in WO20171153601 for this batch of aSyn fibrils was 32 nM. Measurement B was performed on second batch of aSyn fibrils, the corresponding Kd for the radioligand [^3H] Example 69 disclosed in WO2017/153601 for the second batch of aSyn fibrils was 60 nM.

Where [3] appears, read: measurement C, read-out: Ki on human AD-Insoluble Fraction, measurement C.
The mark [4] stands for this setting: measurement A, first batch of aSyn fibrils, radioligand [3H] Example 69 of WO2017/153601 (Kd 32 nM), read-out: Ki on aSyn Fibrils, measurement A.
The mark [5] stands for this setting: measurement B, second batch of aSyn fibrils, radioligand [3H] Example 69 of WO2017/153601 (Kd 60 nM), read-out: Ki on aSyn Fibrils, measurement B.
The mark [6] stands for this setting: measurement D, read-out: Ki on human AD-Insoluble Fraction, measurement D.

As usually defined, the Ki is the dissociation constant of the complex between target and ligand, obtained from inhibition or displacement. As usually defined, the Kd is the concentration at which binding is half-saturated.

In the case of `CN1CCN(c2cc3sc(-c4ccc(N5CC[C@@H](F)C5)nc4)nc3cn2)C(=O)C1` [Example 1], the Ki in assay [1] (setting [3]) was > 500 nM; in assay [2] (setting [4]), 14.7 nM; in assay [2] (setting [5]), 31.9 nM. For the same compound, the “improvement of Ki value on aSyn fibrils compared to compounds 70 and 71 of WO2017/153601” value in assay [2] is recorded as “improved by at least twofold”.
For the compound `CN1CCN(c2cc3sc(-c4ccc(N5CC[C@H](F)C5)nc4)nc3cn2)C(=O)C1` [Example 2], the inhibition constant (Ki) is > 500 nM in assay [1] (setting [3]), > 500 nM in assay [1] (setting [6]), 12.2 nM in assay [2] (setting [4]) and 31.9 nM in assay [2] (setting [5]). Moreover, in assay [2], the “improvement of Ki value on aSyn fibrils compared to compounds 70 and 71 of WO2017/153601” value is “improved by at least twofold”.
Regarding `CN1CCN(c2cc3sc(-c4ccc(N5CC(F)C5)nc4)nc3cn2)C(=O)C1` [Example 3A], the Ki in assay [1] (setting [6]) was > 500 nM; in assay [2] (setting [5]), 96.8 nM. Besides, the “binding to aSyn fibrils in comparison to Examples 70 and 71 of WO2017/153601” value (“binding to aSyn fibrils in comparison” below) in assay [2] is recorded as “similar”.
Consider `CNc1ncc(-c2nc3cnc(N4CCN(C)CC4=O)cc3s2)cc1F` [Example 3B], for which the inhibition constant Ki was 50 to 500 nM in assay [1] (setting [3]), 50 to 500 nM in assay [1] (setting [6]) and 27.8 nM in assay [2] (setting [4]). Further, the “binding to aSyn fibrils in comparison” value in assay [2] is “improved”.
In the case of `CN1CCN(c2cc3sc(-c4cnc(N5CCC5)c(F)c4)nc3cn2)C(=O)C1` [Example 3C], the inhibition constant (Ki) in assay [1] (setting [6]) is > 500 nM; in assay [2] (setting [4]), 5.8 nM. In addition, the “binding to aSyn fibrils in comparison” value in assay [2] is given as “improved; also recorded: considerably greater affinity”.
On the same counts, the results for `CN1CCN(c2cc3sc(-c4cnc(N5CC[C@@H](F)C5)nc4)nc3cn2)C(=O)C1` [Example 3D] are > 500 nM, 38.4 nM and “improved”.
With `CN1CCN(c2ncc3nc(-c4ccc(N5CC[C@@H](F)C5)nc4)sc3n2)C(=O)C1` [Example 3], the results for the inhibition constant (Ki) in assay [1] (setting [3]), in assay [1] (setting [6]) and in assay [2] (setting [5]) were > 500 nM, > 500 nM and 28.3 nM, respectively.
Turning to `CN1CCN(c2ccc3nc(-c4ccc(N5CC[C@@H](F)C5)nc4)sc3n2)C(=O)C1` [Example 4], the “improvement of Ki value on aSyn fibrils compared to compounds 70 and 71 of WO2017/153601” value in assay [2] is given as “improved by at least twofold”.
With `CN1CCN(c2ncc3nc(-c4ccc(N5CC[C@H](F)C5)nc4)sc3n2)C(=O)C1` [Example 4], the Ki in assay [1] (setting [6]) was > 500 nM; in assay [2] (setting [5]) it was 52.8 nM.
On the same counts, the results for `CN1CCN(c2ccc3nc(-c4ccc(N5CC[C@@H](F)C5)nc4)sc3n2)C(=O)C1` [Example 5] are > 500 nM and 41.7 nM.
In the case of `CN1CCN(c2ccc3nc(-c4ccc(N5CC[C@H](F)C5)nc4)sc3n2)C(=O)C1` [Example 5], the “improvement of Ki value on aSyn fibrils compared to compounds 70 and 71 of WO2017/153601” value in assay [2] is given as “improved by at least twofold”.
For the compound `CN1CCN(c2ncc3nc(-c4ccc(N5CC(F)C5)nc4)sc3n2)C(=O)C1` [Example 7A], the Ki in assay [1] (setting [6]) is > 500 nM; in assay [2] (setting [4]) it was 55.3 nM. The “binding to aSyn fibrils in comparison” value in assay [2] is reported as “similar”.
On the same counts, the results for `CN1CCN(c2ncc3nc(-c4ccc(N5CCC[C@@H](F)C5)nc4)sc3n2)C(=O)C1` [Example 7B] are > 500 nM, 31.3 nM and “improved”.
Consider `CN1CCN(c2ncc3nc(-c4ccc(N5CCC[C@H](F)C5)nc4)sc3n2)C(=O)C1` [Example 7C], for which the results for the Ki in assay [1] (setting [3]), in assay [1] (setting [6]) and in assay [2] (setting [4]) were > 500 nM, > 500 nM and 34.2 nM, respectively. For the same compound, in assay [2], the “binding to aSyn fibrils in comparison” value is given as “improved”.
On to `CN1CCN(c2ccc3nc(-c4ccc(N5CC[C@@H](F)C5)nc4)sc3c2)C(=O)C1` [Example 70 of WO2017/153601, reference compound], for which the Ki is > 500 nM in assay [1] (setting [3]), 39 nM in assay [2] (setting [4]) and 97.7 nM in assay [2] (setting [5]).
Take `CN1CCN(c2ccc3nc(-c4ccc(N5CC[C@H](F)C5)nc4)sc3c2)C(=O)C1` [Example 71 of WO2017/153601, reference compound]: the inhibition constant Ki in assay [1] (setting [3]) is > 500 nM; in assay [2] (setting [4]), 46.9 nM; in assay [2] (setting [5]) it was 73.7 nM.
As to `[3H]C([3H])([3H])Nc1ccc(-c2ccc3cc(-c4cccnc4)sc3n2)cn1` [[^3H] Example 47 of WO2017/153601, reference compound], the Kd in assay [1] (measurements C and D, read-out: Kd of the radioligand on the AD insoluble fraction) worked out at 8 nM.
As to `[3H]C([3H])([3H])N1CCN(c2ccc3nc(-c4ccc(N5CCCC5)nc4)sc3c2)C(=O)C1` [[^3H] Example 69 of WO2017/153601, reference compound], the Kd worked out at 32 nM in assay [2] (batch of aSyn fibrils of measurement A) and 60 nM in assay [2] (second batch of aSyn fibrils, measurement B).
